The text below walks through data of patent publication US20240410898A1, “METHOD FOR DETECTING PROTEIN HAVING CHANGES IN ENERGY STATE, OR AFFINITY OF LIGAND TO PROTEIN” (DALIAN INSTITUTE OF CHEMICAL PHYSICS, CHINESE ACADEMY OF …, priority 2022, published 2024).

The subject of the experiment is proteins containing the SH2 domain. Briefly: pulldown experiment with Biotin-pYEEI, BT474 cell lysate. The format is binding. The conditions noted are these: 100 μM Biotin-pYEEI. The method, then:
The pulldown experiment was conducted as follows: The cell lysate is from BT474 cells, and the cell lysis was performed as described in Example 1. […] Two additional 100 μL samples were treated with Biotin-pSEEI at a final concentration of 100 μM and Biotin-YEEI at a final concentration of 100 μM, respectively, serving as control groups. This process was repeated three times, and the samples were incubated with ligands at room temperature for 30 minutes. After incubation, 200 μL of avidin beads (Thermo, USA) were added to each group and incubated overnight at 4° C. Subsequently, the beads were washed four times with a washing buffer (1% phosphatase inhibitor, and 0.5% NP40 in PBS), followed by four washes with a cell lysis buffer (1% phosphatase inhibitor in PBS solution). The proteins were eluted by adding 100 μL of HEPES buffer (pH 8.2) containing 8M guanidine hydrochloride, and the elution step was repeated twice. The eluted proteins were alkylated by adding 10 mM TCEP and 40 mM CAA, followed by heating at 95° C. for 5 minutes. The eluted protein solution was transferred to an ultrafiltration unit and centrifuged at 14,000 g for 30 minutes to remove the buffer. The ultrafiltration membrane was washed twice with 200 μL of a 10 mM ammonium bicarbonate (NH4HCO3) buffer. […]

On to “Phosphorylated tyrosine-glutamate-glutamate-isoleucine [pYEEI]”, for which the “SH2 domain proteins determined as pYEEI-binding proteins in pulldown” value is recorded as “none of the proteins containing the SH2 domain was determined as pYEEI-binding proteins”.
